From article PMC9069370, “Integrated Design of a Membrane‐Lytic Peptide‐Based Intravenous Nanotherapeutic Suppresses Triple‐Negative Breast Cancer” (Advanced Science, 2022)
Peptide text beside a SMILES is read from it.

Tests used:
[1] = ANTS/DPX liposome leakage assay; conditions: for Peptide Concentration-induced 50 % ANTS/DPX leakage at pH 4.8 (L/P), 3POPC/1POPG Vesicle / Peptide Concentration-induced 50 % ANTS/DPX leakage at pH 4.8 (L/P), POPC Vesicle / Peptide Concentration-induced 50 % ANTS/DPX leakage at pH 7.4 (L/P), 3POPC/1POPG Vesicle / Peptide Concentration-induced 50 % ANTS/DPX leakage at pH 7.4 (L/P), POPC Vesicle: 0.5 mM vesicles, peptide 0-20 µM, 3 h incubation, lipid per peptide; for Peptide Concentration-induced 50 % ANTS/DPX leakage at pH 4.8 (L/P), 3POPC/1POPG Vesicle / Peptide Concentration-induced 50 % ANTS/DPX leakage at pH 4.8 (L/P), POPC Vesicle: HCl-adjusted PBS 1X pH 4.8; for Peptide Concentration-induced 50 % ANTS/DPX leakage at pH 7.4 (L/P), 3POPC/1POPG Vesicle / Peptide Concentration-induced 50 % ANTS/DPX leakage at pH 7.4 (L/P), POPC Vesicle: PBS 1X pH 7.4, high ratio = more potent
In short: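 The value is the lipid-to-peptide ratio giving 50% ANTS/DPX release, with fluorescence (350/510 nm) read after 3 h and scaled to 10% Triton as full leakage. Peptides were titrated into 0.5 mM LUVs of POPC or 3POPC/1POPG (0.1 µm, free dye removed by gel filtration) in PBS at pH 7.4 or 4.8.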

HEK293T = test: cells; format: cell-based, human; conditions: 72 h
U2OS = format: cell-based, human; conditions: 72 h
[2] = Tryptophan fluorescent binding assay; conditions: tryptophan fluorescence; 50 µM peptide, lipid titrated 0-5000 µM; phosphate buffered saline 1X, pH 7.4; values as lipid per peptide
In short: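 Peptides at 50 µM were incubated for 1 h with increasing amounts of 3:1 POPC:POPG unilamellar vesicles in 1X phosphate buffered saline, pH 7.4. Tryptophan emission (300–450 nm, excitation 280 nm) was recorded on a Cytation 5 multi-mode reader. The lipid concentration giving 50 % peptide binding was determined and reported as a lipid-to-peptide ratio.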

HMLER = test: cells; format: cell-based, human; conditions: 72 h
Excerpt: (§1) […], and MCF-10A cells were maintained in MEGM with supplements and growth factors bovine pituitary extract, hydrocortisone, human epidermal growth factor, insulin, and gentamicin/amphotericin-B.

HMLER‐shEcad = test: cells; format: cell-based, human; conditions: 72 h
Excerpt: as §1

MCF‐10A = test: cells; format: cell-based, human; conditions: 72 h
Excerpt: as §1

Compound | Peptide Concentration-induced 50 % ANTS/DPX leakage at pH 4.8 (L/P), 3POPC/1POPG Vesicle [1] [L/P] | Peptide Concentration-induced 50 % ANTS/DPX leakage at pH 4.8 (L/P), POPC Vesicle [1] [L/P] | Peptide Concentration-induced 50 % ANTS/DPX leakage at pH 7.4 (L/P), 3POPC/1POPG Vesicle [1] [L/P] | Peptide Concentration-induced 50 % ANTS/DPX leakage at pH 7.4 (L/P), POPC Vesicle [1] [L/P] | IC50 (HEK293T) [µM] | IC50 (U2OS) [µM] | Lipid Concentration-induced 50% Peptide Binding (L/P), 3POPC/1POPG Vesicle [2] [L/P] | Lipid Concentration-induced 50% Peptide Binding (L/P), POPC Vesicle [2] [L/P] | IC50 (HMLER) [µM] | IC50 (HMLER‐shEcad) [µM] | IC50 (MCF‐10A) [µM] | change of ANTS/DPX dye leakage / liposome selectivity at pH 4.8 ([1]; pH = 4.8 compared with physiological pH, anionic versus neutral liposomes)
CC(C)C[C@H](NC(=O)CN)C(=O)N[C@@H](CC(C)C)C(=O)N[C@@H](CC(=O)O)C(=O)N[C@@H](CC(C)C)C(=O)N[C@@H](CC(C)C)C(=O)N[C@@H](CCCCN)C(=O)N[C@@H](CC(C)C)C(=O)N[C@@H](CC(C)C)C(=O)N[C@@H](CC(C)C)C(=O)N[C@@H](Cc1c[nH]cn1)C(=O)N[C@@H](C)C(=O)N[C@@H](C)C(=O)NCC(=O)N[C@@H](Cc1c[nH]c2ccccc12)C(N)=O [DKH] (H-GLLDLLKLLLHAAGW-NH2) | 58 | 41 | 274 | 614 | 6.15 ± 1.34 | 21.1 ± 3.01 | 0.46 | 10.00 | 3.45 ± 0.07 | 2.8 ± 0.28 | 7.05 ± 0.21 | –
CC(C)C[C@H](NC(=O)CN)C(=O)N[C@@H](CC(C)C)C(=O)N[C@@H](CCCCN)C(=O)N[C@@H](CC(C)C)C(=O)N[C@@H](CC(C)C)C(=O)N[C@@H](CCCCN)C(=O)N[C@@H](CC(C)C)C(=O)N[C@@H](CC(C)C)C(=O)N[C@@H](CC(C)C)C(=O)N[C@@H](CCCCN)C(=O)N[C@@H](C)C(=O)N[C@@H](C)C(=O)NCC(=O)N[C@@H](Cc1c[nH]c2ccccc12)C(N)=O [KKK] (H-GLLKLLKLLLKAAGW-NH2) | 81 | 156 | 115 | 1369 | 3.7 ± 0.14 | 9.65 ± 1.2 | 1.70 | 1.25 | 1.57 ± 0.24 | 1.35 ± 0.4 | 1.37 ± 0.24 | –
CC(C)C[C@H](NC(=O)CN)C(=O)N[C@@H](CC(C)C)C(=O)N[C@@H](CC(=O)O)C(=O)N[C@@H](CC(C)C)C(=O)N[C@@H](CC(C)C)C(=O)N[C@@H](CCCCN)C(=O)N[C@@H](CC(C)C)C(=O)N[C@@H](CC(C)C)C(=O)N[C@@H](CC(C)C)C(=O)N[C@@H](CCC(=O)O)C(=O)N[C@@H](C)C(=O)N[C@@H](C)C(=O)NCC(=O)N[C@@H](Cc1c[nH]c2ccccc12)C(N)=O [DKE] (H-GLLDLLKLLLEAAGW-NH2) | 469 | 21 | 411 | 747 | 7.8 ± 1.41 | 9.93 ± 0.25 | 0.46 | 0.56 | 2.1 | 1.57 ± 0.33 | 4.75 ± 0.49 | –
CC(C)C[C@H](NC(=O)CN)C(=O)N[C@@H](CC(C)C)C(=O)N[C@@H](Cc1c[nH]cn1)C(=O)N[C@@H](CC(C)C)C(=O)N[C@@H](CC(C)C)C(=O)N[C@@H](Cc1c[nH]cn1)C(=O)N[C@@H](CC(C)C)C(=O)N[C@@H](CC(C)C)C(=O)N[C@@H](CC(C)C)C(=O)N[C@@H](CCC(=O)O)C(=O)N[C@@H](C)C(=O)N[C@@H](C)C(=O)NCC(=O)N[C@@H](Cc1c[nH]c2ccccc12)C(N)=O [HHE] (H-GLLHLLHLLLEAAGW-NH2) | 113 | 143 | 411 | 842 | 18.4 ± 3.75 | 53.2 ± 5.3 | 0.75 | 1.00 | 16.7 ± 2.26 | 10.8 ± 0.78 | > 200 | –
CC(C)C[C@H](NC(=O)CN)C(=O)N[C@@H](CC(C)C)C(=O)N[C@@H](CCC(=O)O)C(=O)N[C@@H](CC(C)C)C(=O)N[C@@H](CC(C)C)C(=O)N[C@@H](Cc1c[nH]cn1)C(=O)N[C@@H](CC(C)C)C(=O)N[C@@H](CC(C)C)C(=O)N[C@@H](CC(C)C)C(=O)N[C@@H](Cc1c[nH]cn1)C(=O)N[C@@H](C)C(=O)N[C@@H](C)C(=O)NCC(=O)N[C@@H](Cc1c[nH]c2ccccc12)C(N)=O [EHH] (H-GLLELLHLLLHAAGW-NH2) | 80 | 386 | 981 | 1043 | 5.9 ± 0.14 | 117 ± 7 | 0.69 | 0.94 | 25.4 ± 2.76 | 16.1 ± 3.18 | 150 ± 71 | increased selectivity for neutral bilayers
CC(C)C[C@H](NC(=O)CN)C(=O)N[C@@H](CC(C)C)C(=O)N[C@@H](CC(=O)O)C(=O)N[C@@H](CC(C)C)C(=O)N[C@@H](CC(C)C)C(=O)N[C@@H](Cc1c[nH]cn1)C(=O)N[C@@H](CC(C)C)C(=O)N[C@@H](CC(C)C)C(=O)N[C@@H](CC(C)C)C(=O)N[C@@H](CCC(=O)O)C(=O)N[C@@H](C)C(=O)N[C@@H](C)C(=O)NCC(=O)N[C@@H](Cc1c[nH]c2ccccc12)C(N)=O [DHE] (H-GLLDLLHLLLEAAGW-NH2) | 469 | 58 | 581 | 566 | 11.1 ± 1.91 | 17.2 ± 1.06 | 0.72 | 1.00 | 3.75 ± 0.92 | 2.8 ± 0.14 | 22.7 ± 4.31 | –
